# In patent publication US9776995B2, “Bicyclic sulfonamide compounds as sodium channel inhibitors” (AMGEN INC., priority 2013, dated 2017):
# What was measured:
# Nav 1.7 [1] = target: T1, Nav 1.7 (Homo sapiens (Human), UniProt Q15858); assay: Nav 1.7 in vitro PX assay (PatchXpress whole cell voltage clamp); type: cell-based;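 note: holding potential set for 20 to 50% inactivation, sodium current evoked by a 20 ms step to −10 mV, peak current inhibition read after compound exposure, 3–5 cells per concentration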
# Nav 1.7 [2] = target: T1, Nav 1.7; assay: in-vitro Nav 1.7 PX data; type: cell-based
# [3] = HEK 293 cells stably transfected with human Nav1.7, PatchXpress, partially inactivated state
# [4] = in-vitro Nav 1.7 PX (PatchXpress)
# T1 sequence (Q15858 whole entry): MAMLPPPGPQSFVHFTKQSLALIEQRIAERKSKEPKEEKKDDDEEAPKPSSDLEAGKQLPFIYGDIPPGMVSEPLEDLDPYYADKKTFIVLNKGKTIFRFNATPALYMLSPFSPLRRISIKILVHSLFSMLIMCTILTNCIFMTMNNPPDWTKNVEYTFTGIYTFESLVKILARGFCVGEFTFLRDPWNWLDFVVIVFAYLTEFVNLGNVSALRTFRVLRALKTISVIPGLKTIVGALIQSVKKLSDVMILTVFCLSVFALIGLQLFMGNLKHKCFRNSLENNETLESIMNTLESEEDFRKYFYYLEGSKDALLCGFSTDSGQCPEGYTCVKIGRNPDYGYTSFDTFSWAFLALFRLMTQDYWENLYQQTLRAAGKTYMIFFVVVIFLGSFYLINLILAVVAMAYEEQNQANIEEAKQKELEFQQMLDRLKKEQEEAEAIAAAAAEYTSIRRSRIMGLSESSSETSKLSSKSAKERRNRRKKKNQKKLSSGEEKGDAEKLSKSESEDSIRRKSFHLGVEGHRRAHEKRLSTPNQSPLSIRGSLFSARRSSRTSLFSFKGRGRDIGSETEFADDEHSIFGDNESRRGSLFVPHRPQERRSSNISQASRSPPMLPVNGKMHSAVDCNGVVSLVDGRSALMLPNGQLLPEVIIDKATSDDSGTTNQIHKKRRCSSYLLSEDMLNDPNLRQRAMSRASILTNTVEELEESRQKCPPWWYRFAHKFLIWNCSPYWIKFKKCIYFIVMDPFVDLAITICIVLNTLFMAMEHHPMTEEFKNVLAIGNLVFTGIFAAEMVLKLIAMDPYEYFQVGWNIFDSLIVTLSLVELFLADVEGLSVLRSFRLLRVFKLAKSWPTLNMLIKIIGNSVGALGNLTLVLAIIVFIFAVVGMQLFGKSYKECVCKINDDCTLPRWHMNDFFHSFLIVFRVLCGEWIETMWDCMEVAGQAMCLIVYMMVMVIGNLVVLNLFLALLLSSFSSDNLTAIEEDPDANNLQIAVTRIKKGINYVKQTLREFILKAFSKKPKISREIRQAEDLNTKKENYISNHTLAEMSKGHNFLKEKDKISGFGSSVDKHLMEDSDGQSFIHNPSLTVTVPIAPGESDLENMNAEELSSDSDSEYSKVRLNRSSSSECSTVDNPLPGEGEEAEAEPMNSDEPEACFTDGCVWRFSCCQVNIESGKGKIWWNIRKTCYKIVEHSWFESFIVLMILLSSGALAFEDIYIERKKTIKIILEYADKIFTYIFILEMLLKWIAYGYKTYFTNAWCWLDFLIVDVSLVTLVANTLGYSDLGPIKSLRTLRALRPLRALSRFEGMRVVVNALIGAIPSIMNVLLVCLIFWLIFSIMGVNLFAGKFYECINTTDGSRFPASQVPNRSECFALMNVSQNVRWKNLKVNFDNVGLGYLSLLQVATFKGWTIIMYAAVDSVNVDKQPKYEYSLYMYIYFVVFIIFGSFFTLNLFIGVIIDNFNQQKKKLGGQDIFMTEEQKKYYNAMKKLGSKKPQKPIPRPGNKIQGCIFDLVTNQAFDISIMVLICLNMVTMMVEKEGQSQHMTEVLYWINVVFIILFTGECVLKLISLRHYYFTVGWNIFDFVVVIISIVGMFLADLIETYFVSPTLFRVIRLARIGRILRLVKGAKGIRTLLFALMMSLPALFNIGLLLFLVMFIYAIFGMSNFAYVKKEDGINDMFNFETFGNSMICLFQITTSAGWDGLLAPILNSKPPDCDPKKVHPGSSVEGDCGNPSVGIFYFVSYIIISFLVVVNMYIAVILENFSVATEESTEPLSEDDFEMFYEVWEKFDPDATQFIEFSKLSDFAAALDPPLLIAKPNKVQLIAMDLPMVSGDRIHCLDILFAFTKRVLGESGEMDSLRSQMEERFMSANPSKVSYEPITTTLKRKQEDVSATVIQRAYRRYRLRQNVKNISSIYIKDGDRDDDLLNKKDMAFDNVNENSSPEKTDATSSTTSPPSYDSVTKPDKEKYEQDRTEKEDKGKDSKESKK
smiles,measurement,setting,value
"COc1cc(-c2cccc(Cl)c2)c(F)cc1-c1ncnc2cc(S(=O)(=O)Nc3ncccn3)ccc12 [Example 315, 4-(3′-chloro-2-fluoro-5-methoxy-4-biphenylyl)-N-2-pyrimidinyl-7-quinazolinesulfonamide]",IC50,Nav 1.7 [1]; [3],48 nM
"COc1cc(-c2cccc(F)c2)c(Cl)cc1-c1c(OC)cnc2cc(S(=O)(=O)Nc3ccon3)ccc12 (atropisomer, axis not shown; (P)) [Example 340, (P)-4-(2-chloro-3′-fluoro-5-methoxy-[1,1′-biphenyl]-4-yl)-N-(isoxazol-3-yl)-3-methoxyquinoline-7-sulfonamide]",IC50,Nav 1.7 [1]; [3],84 nM
"COc1cc(-c2ccc(F)c(Cl)c2)c(C)cc1-c1nccc2cc(S(=O)(=O)Nc3ccon3)ccc12 [Example 284, 1-(3′-chloro-4′-fluoro-5-methoxy-2-methyl-4-biphenylyl)-N-3-isoxazolyl-6-isoquinolinesulfonamide]",IC50,Nav 1.7 [1]; [4],22.8 nM
"COc1ccc(Cl)cc1-c1cc(OC)c(-c2nccc3cc(S(=O)(=O)Nc4ccon4)ccc23)cc1C [Example 281, 1-(5′-chloro-2′,5-dimethoxy-2-methyl-4-biphenylyl)-N-3-isoxazolyl-6-isoquinolinesulfonamide]",IC50,Nav 1.7 [1]; [4],16.4 nM
"COc1cc(-c2ccc(Cl)c(C)c2)c(Cl)cc1-c1nccc2cc(S(=O)(=O)Nc3nncs3)ccc12 [Example 379, 1-(2,4′-dichloro-5-methoxy-3′-methyl-4-biphenylyl)-N-1,3,4-thiadiazol-2-yl-6-isoquinolinesulfonamide]",IC50,Nav 1.7 [1]; [3],14 nM
"COc1cc(-c2ccc(C)c(Cl)c2)c(Cl)cc1-c1nncc2cc(S(=O)(=O)Nc3ccon3)ccc12 [Example 246, 1-(2,3′-dichloro-5-methoxy-4′-methyl-4-biphenylyl)-N-3-isoxazolyl-6-phthalazinesulfonamide]",IC50,Nav 1.7 [1]; PatchXpress (PX),17.2 nM
"COc1cc(-c2cccc(F)c2)c(Cl)cc1-c1c(=O)n(C)cc2cc(S(=O)(=O)Nc3ccon3)ccc12 [Example 402, 4-(2-CHLORO-3′-FLUORO-5-METHOXY-[1,1′-BIPHENYL]-4-YL)-N-(ISOXAZOL-3-YL)-2-METHYL-3-OXO-2,3-DIHYDROISOQUINOLINE-7-SULFONAMIDE]",IC50,Nav 1.7 [1]; [3],39 nM
"COc1cc(-c2ccc(Cl)c(F)c2)ccc1-c1nccc2cc(S(=O)(=O)Nc3ccon3)ccc12 [Example 290, 1-(4′-chloro-3′-fluoro-3-methoxy-4-biphenylyl)-N-3-isoxazolyl-6-isoquinolinesulfonamide]",IC50,Nav 1.7 [1]; [4],137 nM
"COc1cc(-c2ccc(F)c(C3CC3)c2)c(C)cc1-c1ncnc2cc(S(=O)(=O)Nc3ccon3)ccc12 [Example 554, 4-(3′-cyclopropyl-4′-fluoro-5-methoxy-2-methyl-4-biphenylyl)-N-3-isoxazolyl-7-quinazolinesulfonamide]",IC50,Nav 1.7 [1]; [3],34 nM
"COc1cc(-c2cccc(F)c2)c(Cl)cc1-c1c(C#N)cnc2cc(S(=O)(=O)Nc3ccon3)ccc12 (atropisomer, axis not shown; (P)) [Example 335, (P)-4-(2-chloro-3′-fluoro-5-methoxy-[1,1′-biphenyl]-4-yl)-3-cyano-N-(isoxazol-3-yl)quinoline-7-sulfonamide]",IC50,Nav 1.7 [1]; [3],112 nM
"COc1cc(-c2cc(C)cc(F)c2)c(C)cc1-c1ncnc2cc(S(=O)(=O)Nc3ccon3)ccc12 [Example 260, 4-(3′-fluoro-5-methoxy-2,5′-dimethyl-4-biphenylyl)-N-3-isoxazolyl-7-quinazolinesulfonamide]",IC50,Nav 1.7 [1]; PatchXpress (PX),36.7 nM
"COc1cc(-c2cccc(Cl)c2)c(F)cc1-c1cn(C)c(=O)c2cc(S(=O)(=O)Nc3ccon3)ccc12 [Example 344, 4-(3′-chloro-2-fluoro-5-methoxy-[1,1′-biphenyl]-4-yl)-N-(isoxazol-3-yl)-2-methyl-1-oxo-1,2-dihydroisoquinoline-7-sulfonamide]",IC50,Nav 1.7 [1]; [3],49 nM
"COc1cc(-c2cccc(F)c2)c(C#N)cc1-c1cccc2cc(S(=O)(=O)Nc3ccon3)ccc12 [Example 292, 5-(2-cyano-3′-fluoro-5-methoxy-4-biphenylyl)-N-3-isoxazolyl-2-naphthalenesulfonamide]",IC50,Nav 1.7 [1]; [4],256 nM
COc1cc(-c2cccc(F)c2)c(Cl)cc1-c1ncnc2cc(S(=O)(=O)Nc3ccc(F)cn3)ccc12 [Example 479],IC50,Nav 1.7 [1]; [3],221 nM
"COc1cc(-c2cc(F)cc(C3CC3)c2)c(C)cc1-c1ncnc2cc(S(=O)(=O)Nc3ccon3)ccc12 [Example 555, 4-(3′-cyclopropyl-5′-fluoro-5-methoxy-2-methyl-4-biphenylyl)-N-3-isoxazolyl-7-quinazolinesulfonamide]",IC50,Nav 1.7 [1]; [3],61 nM
"COc1cc(-c2cc(F)cc(C3CC3)c2)c(C)cc1-c1ncnc2cc(S(=O)(=O)Nc3ccon3)ccc12 [Example 306, 4-(3′-cyclopropyl-5′-fluoro-5-methoxy-2-methyl-4-biphenylyl)-N-3-isoxazolyl-7-quinazolinesulfonamide]",IC50,Nav 1.7 [1]; [4],61 nM
"COc1cc(-c2c(F)cccc2F)c(C)cc1-c1ncnc2cc(S(=O)(=O)Nc3ccon3)ccc12 [Example 565, 4-(2′,6′-difluoro-5-methoxy-2-methyl-4-biphenylyl)-N-3-isoxazolyl-7-quinazolinesulfonamide]",IC50,Nav 1.7 [1]; [3],199 nM
"COc1cc(-c2ccc(Cl)c(F)c2)c(C)cc1-c1ncnc2cc(S(=O)(=O)Nc3ccon3)ccc12 [Example 271, 4-(4′-chloro-3′-fluoro-5-methoxy-2-methyl-4-biphenylyl)-N-3-isoxazolyl-7-quinazolinesulfonamide]",IC50,Nav 1.7 [1]; PatchXpress (PX),47.2 nM
"COc1cc(-c2cc(F)cnc2OC)c(Cl)cc1-c1nccc2cc(S(=O)(=O)Nc3ccon3)ccc12 [Example 105, 1-(5-chloro-4-(5-fluoro-2-methoxy-3-pyridinyl)-2-methoxyphenyl)-N-3-isoxazolyl-6-isoquinolinesulfonamide]",IC50,Nav 1.7 [2]; in-vitro PX data,29.3 nM
"COc1cc(-c2ccc(Cl)c(C)c2)c(F)cc1-c1nccc2cc(S(=O)(=O)Nc3ccon3)ccc12 [Example 90, 1-(4′-chloro-2-fluoro-5-methoxy-3′-methyl-4-biphenylyl)-N-3-isoxazolyl-6-isoquinolinesulfonamide]",IC50,"Nav 1.7 [2]; PatchXpress (PX), in vitro",59.5 nM
"COc1cc(-c2cc(F)cnc2OC)c(F)cc1-c1nccc2cc(S(=O)(=O)Nc3ccon3)ccc12 [Example 93, 1-(5-fluoro-4-(5-fluoro-2-methoxy-3-pyridinyl)-2-methoxyphenyl)-N-3-isoxazolyl-6-isoquinolinesulfonamide]",IC50,"Nav 1.7 [2]; PatchXpress (PX), in vitro",67.7 nM
COc1cc(-c2nccc3cc(S(=O)(=O)Nc4ccon4)ccc23)c(C)cc1-c1ccc(Cl)c(C)c1 [Example 35],IC50,Nav 1.7 [2]; in-vitro Nav 1.7 PX data,3300 nM
"COc1cc(-c2cc(F)cc(F)c2)ccc1-c1ccnc2cc(S(=O)(=O)Nc3nncs3)ccc12 [Example 13, 4-(3′,5′-DIFLUORO-3-METHOXY-[1,1′-BIPHENYL]-4-YL)-N-(1,3,4-THIADIAZOL-2-YL)QUINOLINE-7-SULFONAMIDE]",IC50,Nav 1.7 [2]; in-vitro PX (PatchXpress) data,453 nM
"COc1cc(-c2cc(F)cc(F)c2)ccc1-c1nccc2cc(S(=O)(=O)Nc3cnccn3)ccc12 [Example 140, 1-(3′,5′-difluoro-3-methoxy-4-biphenylyl)-N-2-pyrazinyl-6-isoquinolinesulfonamide]",IC50,Nav 1.7 [2]; in-vitro Nav 1.7 PX data,652 nM
"COc1nc(NCC(C)(C)C)ccc1-c1nccc2cc(S(=O)(=O)Nc3ccncn3)ccc12 [Example 47, 1-(2-METHOXY-6-(NEOPENTYLAMINO)PYRIDIN-3-YL)-N-(PYRIMIDIN-4-YL)ISOQUINOLINE-6-SULFONAMIDE]",IC50,"Nav 1.7 [2]; PatchXpress (PX), in vitro",899 nM
"COc1cc(NS(=O)(=O)c2ccc3c(-c4ccc(-c5cc(F)cc(F)c5)cc4OC)nccc3c2)no1 [Example 149, 1-(3′,5′-difluoro-3-methoxy-4-biphenylyl)-N-(5-methoxy-3-isoxazolyl)-6-isoquinolinesulfonamide]",IC50,Nav 1.7 [2]; in-vitro Nav 1.7 PX data,1460 nM
"COc1cc(-c2cc(F)cnc2OC)c(Cl)cc1-c1ncnc2cc(S(=O)(=O)Nc3ccon3)ccc12 [Example 214, 4-(5-chloro-4-(5-fluoro-2-methoxy-3-pyridinyl)-2-methoxyphenyl)-N-3-isoxazolyl-7-quinazolinesulfonamide]",IC50,Nav 1.7 [2]; in-vitro PX,19.8 nM
"COc1cc(-c2cccnc2OC(F)F)ccc1-c1nccc2cc(S(=O)(=O)Nc3nncs3)ccc12 [Example 193, 1-(4-(2-(difluoromethoxy)-3-pyridinyl)-2-methoxyphenyl)-N-1,3,4-thiadiazol-2-yl-6-isoquinolinesulfonamide]",IC50,Nav 1.7 [2]; in-vitro PX (PatchXpress) data,871 nM
"COc1nc(N(C)C)c(Cl)cc1-c1nccc2cc(S(=O)(=O)Nc3nncs3)ccc12 [Example 242, 1-(5-chloro-6-(dimethylamino)-2-methoxy-3-pyridinyl)-N-1,3,4-thiadiazol-2-yl-6-isoquinolinesulfonamide]",IC50,Nav 1.7 [2]; in-vitro PX,1870 nM
"COc1cc(-c2cccc(F)c2)ccc1-c1n[nH]c(=O)c2cc(S(=O)(=O)Nc3nncs3)ccc12 [Example 18, 1-(3′-FLUORO-3-METHOXY-[1,1′-BIPHENYL]-4-YL)-4-OXO-N-(1,3,4-THIADIAZOL-2-YL)-3,4-DIHYDROPHTHALAZINE-6-SULFONAMIDE]",IC50,Nav 1.7 [2]; in-vitro PX (PatchXpress) data,1420 nM
"COc1cc(Br)c(Cl)cc1-c1nccc2cc(S(=O)(=O)Nc3ccon3)ccc12 [Example 117, 1-(4-bromo-5-chloro-2-methoxyphenyl)-N-3-isoxazolyl-6-isoquinolinesulfonamide]",IC50,Nav 1.7 [2]; in-vitro PX data,108 nM
"COc1cc(C#N)c(-c2cc(F)cc(F)c2)cc1-c1nccc2cc(S(=O)(=O)Nc3ccon3)ccc12 [Example 139, 1-(6-cyano-3′,5′-difluoro-4-methoxy-3-biphenylyl)-N-3-isoxazolyl-6-isoquinolinesulfonamide]",IC50,Nav 1.7 [2]; in-vitro Nav 1.7 PX data,15300 nM
"COc1cc(Oc2ccc(F)c(C)c2)ccc1-c1nccc2cc(S(=O)(=O)Nc3ccncn3)ccc12 [Example 29, 1-(4-(4-FLUORO-3-METHYLPHENOXY)-2-METHOXYPHENYL)-N-(PYRIMIDIN-4-YL)ISOQUINOLINE-6-SULFONAMIDE]",IC50,Nav 1.7 [2]; in-vitro Nav 1.7 PX data,1580 nM
"COc1cc(-c2cccc(Cl)c2)c(F)cc1-c1nccc2cc(S(=O)(=O)Nc3ncccn3)ccc12 [Example 97, 1-(3′-chloro-2-fluoro-5-methoxy-4-biphenylyl)-N-2-pyrimidinyl-6-isoquinolinesulfonamide]",IC50,"Nav 1.7 [2]; PatchXpress (PX), in vitro",111 nM
